Experimental data as given in patent publication US20230322723A1, “COMPOUNDS FOR SUPPRESSING EGFR MUTANT CANCER AND PHARMACEUTICAL USE THEREOF” (J2H BIOTECH INC., priority 2020, published 2023).

Tests used:
EGFR^del19+T790M+C797S = assay: EGFR protein degradation test (Western blot) in Ba/F3 cells expressing mutant EGFR del19+T790M+C797S (DTC); type: cell-based; conditions: compounds at 0.1 μM and 1 μM, 24 hours, Western blot with EGFR antibody
Procedure, shortened: (§1)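 Ba/F3 cells expressing wild-type EGFR, del19+T790M+C797S or L858R+T790M+C797S EGFR were treated with compound at 0.1 μM and 1 μM for 24 h. Lysates (30 μg) were analysed by SDS-PAGE and EGFR Western blot, with bands quantified densitometrically.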

EGFR^L858R+T790M+C797S = target: T1, EGFR^L858R+T790M+C797S (Homo sapiens, UniProt P00533, C797S/L858R/T790M); assay: EGFR protein degradation test (Western blot) in Ba/F3 cells expressing mutant EGFR L858R+T790M+C797S (LTC); type: cell-based; conditions: compounds at 0.1 μM and 1 μM, 24 hours, Western blot with EGFR antibody
T1 construct: expressed in transfected cells; host or cells: Ba/F3
Procedure, shortened: as §1

[1] = Pharmacokinetic evaluation after single oral administration to ICR mice; type: in vivo; conditions: for half-life / AUC(0-t): mouse, ICR mice, single oral dose 5 mg/kg, plasma; for AUC(0-t): read-out: AUC0-24
Method: Pharmacokinetic tests for the compounds of the present invention were conducted as below. After a single oral administration of the compound of the present invention to ICR mice, the concentration of the compound over time was followed up and analyzed.
The compound of the present invention was suspended in 10% DMSO/90% (30% HPbCD aqueous solution) and orally administered to mice at a dose of 5 mg/kg. Blood was collected at a fixed time and plasma was separated. Drug analysis was performed using HPLC (XBridge column C18, Waters, mobile phase 0.1% formic acid:acetonitrile (30:70, %/%)) and MS/MS (ESI positive, MRM). Mouse blood plasma and each commercially available standard solution were mixed at a ratio of 9:1 to prepare and calibrate at concentrations of […] 5,000 ng/mL. In addition, the preparation of QC samples was prepared by mixing the mouse blood plasma and the standard solution for QC at a ratio of 9:1, and prepared to be concentrations of 100, 750 and 2,500 ng/mL. 100 μL of the plasma sample was transferred to a centrifugation tube, and 10 μL of the internal standard solution and 300 μL of methanol were added, followed by mixing for about 30 seconds for pretreatment. The tube was centrifuged at 3,000×g (4° C.) for about 5 minutes, and the supernatant was taken and transferred to an LC vial and injected into the instrument. Then, the concentration of the compound in mouse plasma was quantified by applying a previously validated assay. For pharmacokinetic parameters, the program WinNonlin 5.2 (Pharsight, USA) was used. AUC0-t, AUC0-∞, Cmax, Tmax, and t1/2 were calculated by Noncompartment modeling (best fit). The pharmacokinetic parameter results were expressed as the mean (Mean) and standard deviation (SD), and were statistically processed using the SPSS program (Statistical Package for the Social Sciences, 10.0K, USA).

[2] = 74, 76, 77, 80, 81 vs 45, 71, 51, 65, 53
[3] = 69, 70, 75, 78, 82 vs compounds 53 and 65

T1 sequence (P00533 25-1210 T790M/C797S/L858R): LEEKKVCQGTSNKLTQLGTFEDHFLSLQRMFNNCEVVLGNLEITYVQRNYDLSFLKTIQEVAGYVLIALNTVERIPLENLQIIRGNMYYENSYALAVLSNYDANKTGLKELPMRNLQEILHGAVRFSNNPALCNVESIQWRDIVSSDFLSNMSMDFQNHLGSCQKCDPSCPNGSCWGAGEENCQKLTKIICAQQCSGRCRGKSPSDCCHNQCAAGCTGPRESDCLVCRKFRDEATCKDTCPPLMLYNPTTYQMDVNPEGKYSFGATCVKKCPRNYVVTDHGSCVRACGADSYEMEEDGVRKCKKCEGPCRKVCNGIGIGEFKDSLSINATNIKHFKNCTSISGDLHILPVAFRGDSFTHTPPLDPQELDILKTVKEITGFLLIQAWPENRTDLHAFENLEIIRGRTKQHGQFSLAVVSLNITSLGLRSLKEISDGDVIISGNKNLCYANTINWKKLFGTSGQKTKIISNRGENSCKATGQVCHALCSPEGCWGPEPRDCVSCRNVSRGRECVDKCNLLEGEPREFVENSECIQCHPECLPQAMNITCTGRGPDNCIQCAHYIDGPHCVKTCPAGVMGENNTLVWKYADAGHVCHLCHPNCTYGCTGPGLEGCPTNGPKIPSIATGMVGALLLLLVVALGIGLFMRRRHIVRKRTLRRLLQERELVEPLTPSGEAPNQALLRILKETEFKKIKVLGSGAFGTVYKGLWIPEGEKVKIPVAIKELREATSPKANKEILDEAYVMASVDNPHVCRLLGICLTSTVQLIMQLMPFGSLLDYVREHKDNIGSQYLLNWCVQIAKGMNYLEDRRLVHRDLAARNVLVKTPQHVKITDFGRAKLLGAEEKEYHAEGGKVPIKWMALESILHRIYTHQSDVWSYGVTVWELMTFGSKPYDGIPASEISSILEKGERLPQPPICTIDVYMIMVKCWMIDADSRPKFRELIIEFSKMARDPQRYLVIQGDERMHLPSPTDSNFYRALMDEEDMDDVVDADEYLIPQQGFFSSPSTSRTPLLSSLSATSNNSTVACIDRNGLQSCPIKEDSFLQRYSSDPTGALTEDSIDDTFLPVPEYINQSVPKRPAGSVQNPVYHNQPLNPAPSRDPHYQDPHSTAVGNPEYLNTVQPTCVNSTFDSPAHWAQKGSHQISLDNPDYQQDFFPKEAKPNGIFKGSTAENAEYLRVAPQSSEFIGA

Compound	DTC (EGFR^del19+T790M+C797S) protein degradation (EGFR^del19+T790M+C797S)	LTC (EGFR^L858R+T790M+C797S) protein degradation (EGFR^L858R+T790M+C797S)	AUC compared to the corresponding compounds [1, 2]	half-life [1] [h]	AUC(0-t) [1] [ng·h/mL]	AUC compared to the corresponding compounds [1, 3]
COc1cc(N2CCC(N3CCN(CCNc4cccc5c4C(=O)N(C4CCC(=O)NC4=O)C5=O)CC3)CC2)c(C)cc1Nc1ncc(Cl)c(Nc2ccccc2N(C)S(C)(=O)=O)n1 (centres unmarked) [Compound 74, N-(2-((5-chloro-2-((4-(4-(4-(2-((2-(2,6-dioxopiperidin-3-yl)-1,3-dioxoisoindolin-4-yl)amino)ethyl)piperazin-1-yl)piperidin-1-yl)-2-methoxy-5-methylphenyl)amino)pyrimidin-4-yl)amino)phenyl)-N-methylmethanesulfonamide]	− (Protein degradation < 20%)	++ (Protein degradation > 80%)	significantly improved AUC	4.44	5520	
COc1cc(N2CCN(CC3CCN(C(=O)[C@H](C)Nc4cccc5c4C(=O)N(C4CCC(=O)NC4=O)C5=O)CC3)CC2)c(C)cc1Nc1ncc(Cl)c(Nc2ccccc2N(C)S(C)(=O)=O)n1 (stereo partly drawn) [Compound 75, N-(2-((5-chloro-2-((4-(4-((1-((2-(2,6-dioxopiperidin-3-yl)-1,3-dioxoisoindolin-4-yl)-L-alanyl)piperidin-4-yl)methyl)piperazin-1-yl)-2-methoxy-5-methylphenyl)amino)pyrimidin-4-yl)amino)phenyl)-N-methylmethanesulfonamide]	++ (Protein degradation > 80%)	++ (Protein degradation > 80%)		2.82	2040	significantly improved AUC
COc1cc(N2CCC(N3CCN(CC4CCN(c5ccc6c(c5)C(=O)N(C5CCC(=O)NC5=O)C6=O)CC4)CC3)CC2)c(C)cc1Nc1ncc(Cl)c(Nc2ccccc2N(C)S(C)(=O)=O)n1 (centres unmarked) [Compound 76, N-(2-((5-chloro-2-((4-(4-(4-((1-(2-(2,6-dioxopiperidin-3-yl)-1,3-dioxoisoindolin-5-yl)piperidin-4-yl)methyl)piperazin-1-yl)piperidin-1-yl)-2-methoxy-5-methylphenyl)amino)pyrimidin-4-yl)amino)phenyl)-N-methylmethanesulfonamide]	+ (Protein degradation 20~80%)	++ (Protein degradation > 80%)	significantly improved AUC	6.66	5240	
COc1cc(N2CCC(N3CCN(CCC4CCN(c5ccc6c(c5)C(=O)N(C5CCC(=O)NC5=O)C6=O)CC4)CC3)CC2)c(C)cc1Nc1ncc(Cl)c(Nc2ccccc2N(C)S(C)(=O)=O)n1 (centres unmarked) [Compound 77, N-(2-((5-chloro-2-((4-(4-(4-(2-(1-(2-(2,6-dioxopiperidin-3-yl)-1,3-dioxoisoindolin-5-yl)piperidin-4-yl)ethyl)piperazin-1-yl)piperidin-1-yl)-2-methoxy5-methylphenyl)amino)pyrimidin-4-yl)amino)phenyl)-N-methylmethanesulfonamide]	+ (Protein degradation 20~80%)	++ (Protein degradation > 80%)	significantly improved AUC	2.96	1170	
COc1cc(N2CCC(CN3CCN(C(=O)[C@H](C)Nc4cccc5c4C(=O)N(C4CCC(=O)NC4=O)C5=O)CC3)CC2)c(C)cc1Nc1ncc(Cl)c(Nc2ccccc2N(C)S(C)(=O)=O)n1 (stereo partly drawn) [Compound 78, N-(2-((5-chloro-2-((4-(4-((4-((2-(2,6-dioxopiperidin-3-yl)-1,3-dioxoisoindolin-4-yl)-L-alanyl)piperazin-1-yl)methyl)piperidin-1-yl)-2-methoxy-5-methylphenyl)amino)pyrimidin-4-yl)amino)phenyl)-N-methylmethanesulfonamide]	++ (Protein degradation > 80%)	++ (Protein degradation > 80%)		3.75	5740	significantly improved AUC
COc1cc(N2CCC(CN3CCN(c4ccc5c(c4)C(=O)N(C4CCC(=O)NC4=O)C5=O)CC3)CC2)c(C)cc1Nc1ncc(Cl)c(Nc2ccccc2N(C)S(C)(=O)=O)n1 (centres unmarked) [Compound 79, N-(2-((5-chloro-2-((4-(4-((4-(2-(2,6-dioxopiperidin-3-yl)-1,3-dioxoisoindolin-5-yl)piperazin-1-yl)methyl)piperidin-1-yl)-2-methoxy-5-methylphenyl)amino)pyrimidin-4-yl)amino)phenyl)-N-methylmethanesulfonamide]	− (Protein degradation < 20%)	+ (Protein degradation 20~80%)		3.47	1130	
COc1cc(N2CCN(CC3CCN(C(=O)CNc4cccc5c4C(=O)N(C4CCC(=O)NC4=O)C5=O)CC3)CC2)c(C)cc1Nc1ncc(Cl)c(Nc2ccccc2N(C)S(C)(=O)=O)n1 (centres unmarked) [Compound 80, N-(2-((5-chloro-2-((4-(4-((1-((2-(2,6-dioxopiperidin-3-yl)-1,3-dioxoisoindolin-4-yl)glycyl)piperidin-4-yl)methyl)piperazin-1-yl)-2-methoxy-5-methylphenyl)amino)pyrimidin-4-yl)amino)phenyl)-N-methylmethanesulfonamide]	++ (Protein degradation > 80%)	++ (Protein degradation > 80%)	significantly improved AUC	3.55	1040	
COc1cc(N2CCN(CC3CCN(C(=O)COc4cccc5c4C(=O)N(C4CCC(=O)NC4=O)C5=O)CC3)CC2)c(C)cc1Nc1ncc(Cl)c(Nc2ccccc2N(C)S(C)(=O)=O)n1 (centres unmarked) [Compound 81, N-(2-((5-chloro-2-((4-(4-((1-(2-((2-(2,6-dioxopiperidin-3-yl)-1,3-dioxoisoindolin-4-yl)oxy)acetyl)piperidin-4-yl)methyl)piperazin-1-yl)-2-methoxy-5-methylphenyl)amino)pyrimidin-4-yl)amino)phenyl)-N-methylmethanesulfonamide]	++ (Protein degradation > 80%)	++ (Protein degradation > 80%)	significantly improved AUC	4.73	502	
COc1cc(N2CCN(CC3CCN(C(=O)[C@H](C)Oc4cccc5c4C(=O)N(C4CCC(=O)NC4=O)C5=O)CC3)CC2)c(C)cc1Nc1ncc(Cl)c(Nc2ccccc2N(C)S(C)(=O)=O)n1 (stereo partly drawn) [Compound 82, N-(2-((5-chloro-2-((4-(4-((1-((2S)-2-((2-(2,6-dioxopiperidin-3-yl)-1,3-dioxoisoindolin-4-yl)oxy)propanoyl)piperidin-4-yl)methyl)piperazin-1-yl)-2-methoxy-5-methylphenyl)amino)pyrimidin-4-yl)amino)phenyl)-N-methylmethanesulfonamide]	++ (Protein degradation > 80%)	++ (Protein degradation > 80%)		6.03	366	significantly improved AUC
